Marks after values point to notes of the source that are not given here.
Assays:
Assay type in all cases: in vivo
[1] = test system: Sclerotinia minor; assay: Lettuce pathogen stress: spray treatment, then stem inoculation, disease severity rating; conditions: for Disease Severity Rating: lettuce, 1-9 rating scale
Method: Waldmann's MTO dark green Grand Rapids leaf lettuce seed, lot#15529, was purchased from Johnny's Selected Seeds, Albion, Me., and grown 8 plants per 1 gallon pot, 1 pot per experimental unit and 3 experimental units per each of 4 replications. The plants were spray-treated first following “row closure” and again 14 days later with 8 ml per pot. The pathogen stress (Sclerotinia minor hyphal fragments and sclerotia, cultured on potato dextrose agar) was applied to the plant stems at the soil/stem interface at 14 days following the second treatment application.
Treatments consisted of non-inoculated and inoculated groups of non-treated (NTC), water and 0.05% surfactant-blank (SB) controls and 15 and 60 ppm of glycolic acid.
Disease assessment was made just prior to harvest by means of a 1-9 based rating scale. Extensive decomposition of the controls made accurate yield fresh and dry weights impossible. The results in Table 1 below show the data for each treatment and the rating scale definitions.

[2] = test system: Bottytis cinerea; assay: Excised lettuce leaves, post-harvest pathogen stress: radius of colonized tissue; conditions: for Average Disease Progression: radius of colonized tissue 3 days post-inoculation
Method: Waldmann's MTO dark green Grand Rapids leaf lettuce seed, lot# 15529, was purchased from Johnny's Selected Seeds, Albion, Me., and grown 8 plants per 1 gallon pot. Circular steel-blue blotter papers (Anchor Paper Co, St. Paul, Minn.) were steam autoclaved and fitted into disposable petri dishes. […]
Blotters were saturated with 4.5 ml sterile tap water. Individual leaves (20) were excised and placed into a treatment solution for 5-10 seconds or left non-treated. Excess fluid was removed from the leaf surface. These leaves were then placed singly, 1 leaf per dish and adaxial side up, on the moist blotters. Dish lids were replaced and dishes stacked, bagged and returned to the petri dish box for 24 hour dark storage at room temperature (65-68° F.).
Inoculum (Bottytis cinerea) was grown on potato dextrose agar (PDA) plates until dense conidia production was present. These were blended into a paste with non-inoculated PDA and sterile tap water. Inoculum concentration was determined by dilution plating to be 1960 cfu/ml.
A small spot of inoculum paste was dotted onto the center of 16 of the 20 leaf pieces per treatment stack 24 hours after test substance application.
Disease progression assessment was made at 3 days±2 hours post-inoculation by measuring the radius of colonized tissue in mm.

[3] = test system: Sclerotinia minor; assay: Cabbage pathogen stress: disease severity rating, fresh and dry weights; conditions: for Dry Weight / Fresh Weight: cabbage under pathogen stress; for Disease Severity Rating: cabbage, 1-9 rating scale
Method: Market Prize, F1 cabbage seed, lot 88955, was purchased from Harris Seeds, Inc., Rochester, N.Y. These were grown 8 plants per 1 gallon pot, 1 pot per experimental unit and 3 experimental units per each of 3 replications. The plants were spray-treated first at 4 true leaves and again 14 days later with 8 ml per pot. The pathogen stress (Sclerotinia minor hyphal fragments and sclerotia, cultured on potato dextrose agar) was applied to the plant stems at the soil/stem interface at 4 days following the second treatment application.
Treatments consisted of non-inoculated and inoculated groups of non-treated (NTC), water and 0.05% surfactant-blank (SB) controls and 1, 5, 10, 25, 37.5 and 75 ppm of glycolic acid.
Disease assessment was made just prior to harvest by means of a 1-9 based rating scale. Each plant was harvested at the soil line for yield fresh and dry weights. The results in Table 2 below show the data for each treatment and the rating scale definitions.

[4] = test system: cabbage; assay: Cabbage drought stress: fresh and dry weights; conditions: drought, water withheld 13 days, 5, 15, 50 ppm
Method: Market Prize, F1 cabbage seed, lot 88955, as described in example 7, was treated identically as in example 7, except that drought stress was imposed by withholding water 7 days following the second spray and continuing to withhold water for 13 sequential days thereafter. Drought tolerance was assessed by measuring both the fresh and dried weights of the plants.

O=C(O)CO [glycolic acid]
Disease Severity Rating ([1]; 15 ppm spray): 3.0* | Disease Severity Rating ([1]; 60 ppm spray): 3.5* | disease severity versus control lettuce ([1]; all glycolic acid treatments (15 and 60 ppm), α=0.05): statistically significant (α=0.05) decrease | Average Disease Progression ([2]; 10 ppm leaf dip): 4.0* mm | disease severity versus control lettuce ([2]; 10 ppm, lettuce leaves, α=0.05): statistically significant (α=0.05) decrease | Average Disease Progression ([2]; 25 ppm leaf dip): 9.8 mm | Average Disease Progression ([2]; 75 ppm leaf dip): 9.4 mm | Average Disease Progression ([2]; 150 ppm leaf dip): 13.6 mm | Average Disease Progression ([2]; 500 ppm leaf dip): 12.1 mm | Average Disease Progression ([2]; 1000 ppm leaf dip): 11.6 mm | Dry Weight ([3]; 1 ppm spray): 38.3 g | Fresh Weight ([3]; 1 ppm spray): 359 g | Disease Severity Rating ([3]; 1 ppm spray): 3.6 | Dry Weight ([3]; 5 ppm spray): 39.8 g | Fresh Weight ([3]; 5 ppm spray): 346 g | Disease Severity Rating ([3]; 5 ppm spray): 3.7 | Dry Weight ([3]; 10 ppm spray): 40.9 g | Fresh Weight ([3]; 10 ppm spray): 342 g | Disease Severity Rating ([3]; 10 ppm spray): 2.8 | Dry Weight ([3]; 25 ppm spray): 39.1 g | Fresh Weight ([3]; 25 ppm spray): 364 g | Disease Severity Rating ([3]; 25 ppm spray): 2.2 | disease severity versus control ([3]; 37.5 and 75 ppm, α=0.05): statistically significant (α=0.05) decrease | fresh weight versus control ([3]; 37.5 ppm): statistically significant increase | Dry Weight ([3]; 37.5 ppm spray): 39.0 g | Fresh Weight ([3]; 37.5 ppm spray): 381* g | Disease Severity Rating ([3]; 37.5 ppm spray): 1.7* | dry weight versus control ([3]; 75 ppm): statistically significant increase | Dry Weight ([3]; 75 ppm spray): 41.5* g | Fresh Weight ([3]; 75 ppm spray): 354 g | Disease Severity Rating ([3]; 75 ppm spray): 2.0* | fresh weight of the cabbage compared to controls ([4]; FIG. 3): statistically significantly increased | dry weight of the cabbage compared to controls ([4]; FIG. 4): statistically significantly increased
